Results taken from PubChem BioAssay AID2060498 (Molecular Pharmacology Branch, DTP, NCI, 2025).
Blank lines part the entries; values can stand above or below the molecule they belong to.

Tested on: 171881-019-R-J1-PDC tumor spheroids, viability
Test: Anticancer human tumor 171881-019-R-J1-PDC patient-derived invasive breast carcinoma cell line growth inhibition [GQUAD]
Settings: spheroids with HUVEC and MSC; for IC50: curve of first compound; for viability, T/C: stronger effect = lower value
In short: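 Tumor cells were grown as complex spheroids with HUVEC endothelial cells and mesenchymal stem cells as stroma. G-quadruplex stabilizers were combined with targeted agents over half-log dilutions from near the clinical Cmax, or from 10 microM.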

[1] = second compound 0.0316 µM, first compound 0.0316 µM
[2] = second compound 0.0316 µM, first compound 0.1 µM
[3] = second compound 0.0316 µM, first compound 0.316 µM
[4] = second compound 0.0316 µM, first compound 1 µM
[5] = second compound 0.0316 µM, first compound 3.16 µM
[6] = second compound 0.0316 µM, first compound 10 µM
[7] = second compound 0.1 µM, first compound 0.0316 µM
[8] = second compound 0.1 µM, first compound 0.1 µM
[9] = second compound 0.1 µM, first compound 0.316 µM
[10] = second compound 0.1 µM, first compound 1 µM
[11] = second compound 0.1 µM, first compound 3.16 µM
[12] = second compound 0.1 µM, first compound 10 µM
[13] = second compound 0.316 µM, first compound 0.0316 µM
[14] = second compound 0.316 µM, first compound 0.1 µM
[15] = second compound 0.316 µM, first compound 0.316 µM
[16] = second compound 0.316 µM, first compound 1 µM
[17] = second compound 0.316 µM, first compound 3.16 µM
[18] = second compound 0.316 µM, first compound 10 µM
[19] = second compound 1 µM, first compound 0.0316 µM
[20] = second compound 1 µM, first compound 0.1 µM
[21] = second compound 1 µM, first compound 0.316 µM
[22] = second compound 1 µM, first compound 1 µM
[23] = second compound 1 µM, first compound 3.16 µM
[24] = second compound 1 µM, first compound 10 µM
[25] = second compound 3.16 µM, first compound 0.0316 µM
[26] = second compound 3.16 µM, first compound 0.1 µM
[27] = second compound 3.16 µM, first compound 0.316 µM
[28] = second compound 3.16 µM, first compound 1 µM
[29] = second compound 3.16 µM, first compound 3.16 µM
[30] = second compound 3.16 µM, first compound 10 µM
[31] = second compound 10 µM, first compound 0.0316 µM
[32] = second compound 10 µM, first compound 0.1 µM
[33] = second compound 10 µM, first compound 0.316 µM
[34] = second compound 10 µM, first compound 1 µM
[35] = second compound 10 µM, first compound 3.16 µM
[36] = second compound 10 µM, first compound 10 µM
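Also: spheroids exposed to compounds for 7 days.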
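For viability, T/C in this document: 100% = DMSO vehicle control viability.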

Compound: C=CCn1c(=O)c2cnc(Nc3ccc(N4CCN(C)CC4)cc3)nc2n1-c1cccc(C(C)(C)O)n1 + CN(C)c1ccc(Nc2c3ccc(NC(=O)CCN4CCCC4)cc3nc3cc(NC(=O)CCN4CCCC4)ccc23)cc1
IC50 (second compound 0.0316 µM): 783 nM | IC50 (second compound 0.1 µM): 707 nM | IC50 (second compound 0.316 µM): < 31.6 nM | IC50 (second compound 1 µM): < 31.6 nM | IC50 (second compound 3.16 µM): < 31.6 nM | IC50 (second compound 10 µM): < 31.6 nM | viability, T/C [1]: 105% | viability, T/C [2]: 86.5% | viability, T/C [3]: 87.6% | viability, T/C [4]: 40% | viability, T/C [5]: 21.3% | viability, T/C [6]: 23.7% | viability, T/C [7]: 106% | viability, T/C [8]: 99% | viability, T/C [9]: 66.8% | viability, T/C [10]: 45.5% | viability, T/C [11]: 24.1% | viability, T/C [12]: 27.5% | viability, T/C [13]: 39.8% | viability, T/C [14]: 38.4% | viability, T/C [15]: 36.4% | viability, T/C [16]: 15.2% | viability, T/C [17]: 16.5% | viability, T/C [18]: 9.97% | viability, T/C [19]: 3.15% | viability, T/C [20]: 2.55% | viability, T/C [21]: 3.78% | viability, T/C [22]: 2.12% | viability, T/C [23]: 1.52% | viability, T/C [24]: 1.18% | viability, T/C [25]: 0.41% | viability, T/C [26]: 0.2% | viability, T/C [27]: 0.36% | viability, T/C [28]: 0.19% | viability, T/C [29]: 0.51% | viability, T/C [30]: 0.13% | viability, T/C [31]: 0.13% | viability, T/C [32]: 0.12% | viability, T/C [33]: 0.54% | viability, T/C [34]: 0.29% | viability, T/C [35]: 0.16% | viability, T/C [36]: 0.14%

Compound: C=CC(=O)N1CCN(c2nc(=O)n(-c3c(C)ccnc3C(C)C)c3nc(-c4c(O)cccc4F)c(F)cc23)C(C)C1 (stereo unspecified) + Cc1[nH]c2ccc(F)cc2c1-c1nc2c3cccnc3c3ncccc3c2[nH]1
IC50 (second compound 0.0316 µM): 9200 nM | IC50 (second compound 0.1 µM): 9550 nM | IC50 (second compound 0.316 µM): 8670 nM | IC50 (second compound 1 µM): 7980 nM | IC50 (second compound 3.16 µM): < 31.6 nM | IC50 (second compound 10 µM): < 31.6 nM | viability, T/C [1]: 92.1% | viability, T/C [2]: 91.5% | viability, T/C [3]: 84.8% | viability, T/C [4]: 109% | viability, T/C [5]: 90% | viability, T/C [6]: 46.5% | viability, T/C [7]: 83% | viability, T/C [8]: 92% | viability, T/C [9]: 101% | viability, T/C [10]: 112% | viability, T/C [11]: 87.9% | viability, T/C [12]: 48.4% | viability, T/C [13]: 100% | viability, T/C [14]: 94.2% | viability, T/C [15]: 91.4% | viability, T/C [16]: 104% | viability, T/C [17]: 92.8% | viability, T/C [18]: 43.7% | viability, T/C [19]: 84.9% | viability, T/C [20]: 80.1% | viability, T/C [21]: 76.2% | viability, T/C [22]: 79.5% | viability, T/C [23]: 85.4% | viability, T/C [24]: 42.4% | viability, T/C [25]: 21.9% | viability, T/C [26]: 16.6% | viability, T/C [27]: 26.8% | viability, T/C [28]: 21.9% | viability, T/C [29]: 24.5% | viability, T/C [30]: 16% | viability, T/C [31]: 38.5% | viability, T/C [32]: 41.4% | viability, T/C [33]: 41.6% | viability, T/C [34]: 47.6% | viability, T/C [35]: 44.9% | viability, T/C [36]: 34.1%

IC50 (second compound 0.0316 µM): < 31.6 nM | IC50 (second compound 0.1 µM): < 31.6 nM | IC50 (second compound 0.316 µM): < 31.6 nM | IC50 (second compound 1 µM): < 31.6 nM | IC50 (second compound 3.16 µM): < 31.6 nM | IC50 (second compound 10 µM): < 31.6 nM
Compound: CC1COCCN1c1cc(C2(O)CC3CCC(C2)O3)c2cnn(-c3ccn[nH]3)c2n1 (stereo unspecified) + Cc1cnc(CNC(=O)c2c(=O)c3ccc(N4CCCN(C)CC4)nc3n3c2sc2ccccc23)cn1
viability, T/C [1]: 33.7% | viability, T/C [2]: 16.5% | viability, T/C [3]: 9.78% | viability, T/C [4]: 5.45% | viability, T/C [5]: 4.11% | viability, T/C [6]: 2.67% | viability, T/C [7]: 33.8% | viability, T/C [8]: 17.1% | viability, T/C [9]: 9.54% | viability, T/C [10]: 5.51% | viability, T/C [11]: 4.25% | viability, T/C [12]: 3.04% | viability, T/C [13]: 34.8% | viability, T/C [14]: 21.1% | viability, T/C [15]: 10.6% | viability, T/C [16]: 5.81% | viability, T/C [17]: 4.2% | viability, T/C [18]: 3.15% | viability, T/C [19]: 35.5% | viability, T/C [20]: 22.2% | viability, T/C [21]: 13.5% | viability, T/C [22]: 6.47% | viability, T/C [23]: 4.91% | viability, T/C [24]: 2.51% | viability, T/C [25]: 44.8% | viability, T/C [26]: 27.9% | viability, T/C [27]: 16.4% | viability, T/C [28]: 6.87% | viability, T/C [29]: 4.24% | viability, T/C [30]: 0.23% | viability, T/C [31]: 43.3% | viability, T/C [32]: 31.1% | viability, T/C [33]: 15.4% | viability, T/C [34]: 7.69% | viability, T/C [35]: 3.95% | viability, T/C [36]: 0.2%
